One test addresses 5-hydroxytryptamine receptor 6 (Homo sapiens, UniProt P50406). As to the kind of experiment: Binding affinity for human 5-hydroxytryptamine 6 receptor expressed in HEK 293 human embryonic kidney cells, [3H]-lysergic acid diethylamide as radioligand. Format: cell-based, HEK293.
Chain of 5-hydroxytryptamine receptor 6 (P50406 whole entry): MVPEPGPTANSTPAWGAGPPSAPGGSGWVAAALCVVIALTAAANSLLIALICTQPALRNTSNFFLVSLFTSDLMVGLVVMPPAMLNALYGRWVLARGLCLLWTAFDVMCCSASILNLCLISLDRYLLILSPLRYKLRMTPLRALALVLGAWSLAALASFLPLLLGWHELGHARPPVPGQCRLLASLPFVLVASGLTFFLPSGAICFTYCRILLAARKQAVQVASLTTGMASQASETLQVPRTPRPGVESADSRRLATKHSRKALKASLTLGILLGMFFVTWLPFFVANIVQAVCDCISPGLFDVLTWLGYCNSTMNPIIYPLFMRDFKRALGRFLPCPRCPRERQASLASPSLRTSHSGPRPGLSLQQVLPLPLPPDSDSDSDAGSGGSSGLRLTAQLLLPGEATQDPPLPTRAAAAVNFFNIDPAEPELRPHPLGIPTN
Turning to `Cc1[nH]c2ccc(O)cc2c1CCN`, the Ki came to 46 nM.
Turning to `CCc1[nH]c2ccc(OC)cc2c1CCN(C)C`, the affinity, expressed as Ki, was 52 nM.
`COc1ccc2[nH]c(C)c(CCN)c2c1` gave a Ki of 98 nM.
`COc1ccc2[nH]c(C)c(CCN(C)C)c2c1` gave a Ki of 80 nM.
With `CCn1cc(CCN(C)C)c2cc(OC)ccc21`, the inhibition constant Ki was 240 nM.
On to `COc1ccc2c(c1)c(CCN(C)C)cn2C(C)C`, for which the Ki turned out to be 130 nM.
`COc1ccc2c(c1)c(CCN(C)C)cn2C`: the affinity corresponds to a Ki of 510 nM.
Consider `COc1ccc2[nH]c(-c3ccccc3)c(CCN(C)C)c2c1`, for which the Ki was 54 nM.
Consider `Cc1[nH]c2ccccc2c1CCN(C)C`, for which the Ki stood at 300 nM.
Still for that read-out and setting: the value for `CCCn1cc(CCN(C)C)c2cc(OC)ccc21` was 200 nM.

Another test addresses T1, 5-hydroxytryptamine receptor 3A (Homo sapiens, UniProt P46098).
T1 sequence (P46098 whole entry): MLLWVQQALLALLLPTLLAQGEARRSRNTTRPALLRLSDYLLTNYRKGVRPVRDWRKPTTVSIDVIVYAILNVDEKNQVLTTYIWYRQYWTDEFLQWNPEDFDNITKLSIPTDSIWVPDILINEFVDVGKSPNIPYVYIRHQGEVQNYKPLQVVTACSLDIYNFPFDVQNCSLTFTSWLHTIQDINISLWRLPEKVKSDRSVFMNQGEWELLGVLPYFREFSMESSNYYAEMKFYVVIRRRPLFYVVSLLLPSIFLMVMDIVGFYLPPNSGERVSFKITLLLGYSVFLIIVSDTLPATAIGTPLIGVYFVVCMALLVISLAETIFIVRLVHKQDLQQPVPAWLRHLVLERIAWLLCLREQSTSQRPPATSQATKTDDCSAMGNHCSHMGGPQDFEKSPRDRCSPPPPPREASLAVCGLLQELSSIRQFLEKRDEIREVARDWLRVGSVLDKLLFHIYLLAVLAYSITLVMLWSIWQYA
As to the kind of experiment: Compound was evaluated for its binding affinity towards 5-hydroxytryptamine 3 receptor.
`Cc1[nH]c2ccc(O)cc2c1CCN`: the Ki was 1200 nM.
On to `COc1ccc2[nH]c(C)c(CCN)c2c1`, for which the Ki was above 10000 nM.
